We go through 10 compounds from PubChem BioAssay (NCI).

Some test systems named below: COLO 205 colon; HS 578T breast; PC-3 prostate; SK-OV-3 ovarian; DU-145 prostate; MOLT-4 leukemia; HT29 colon; A549 NSCLC; OVCAR-8 ovarian; SK-MEL-5 melanoma; KM12 colon; LOX IMVI melanoma.
What all share (assay): NCI tumour cell line growth inhibition, 48 h

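Protocol summary: plate cells (96-well), add compound at 5 concentrations, incubate 48 h, interpolate endpoints linearly. TGI: total growth inhibition.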

For the compound `CCN(CC)C(=S)N/N=C(/C)c1cccc(/C(C)=N\NC(=S)N(CC)CC)n1`, the TGI in the test on COLO 205 colon is 11.3 µM; in the test on HS 578T breast, greater than 100 µM; in the test with PC-3 prostate it was 17 µM; with SK-OV-3 ovarian, 5.43 µM; with DU-145 prostate, 4.83 µM; in the test with MOLT-4 leukemia, 5.77 µM. The TGI in the test with HT29 colon came out at 13.2 µM; with A549 NSCLC it was 11.3 µM; with OVCAR-8 ovarian, 3.19 µM; in the test on SK-MEL-5 melanoma it was 8.2 µM; in the test on KM12 colon, 4.1 µM; with LOX IMVI melanoma, 7.36 µM.
Regarding `NC(N)=NCCC[C@H](N)C(=O)NCC(=O)N[C@@H](CC(=O)O)c1ncc(NC(=O)C(F)(F)F)o1`, the TGI with COLO 205 colon, in the test with HS 578T breast, with PC-3 prostate, with SK-OV-3 ovarian, with DU-145 prostate and in the test with MOLT-4 leukemia was greater than 25 µM each time. Also, the TGI in the test on HT29 colon, in the test with A549 NSCLC, in the test on OVCAR-8 ovarian, in the test with SK-MEL-5 melanoma, with KM12 colon and in the test with LOX IMVI melanoma was greater than 25 µM each time.
Turning to `CCOC(=O)N/N=C(/N)c1cccc([N+](=O)[O-])c1`, the TGI in the test on COLO 205 colon, with HS 578T breast, in the test on PC-3 prostate, in the test on SK-OV-3 ovarian, in the test with DU-145 prostate and in the test on MOLT-4 leukemia was greater than 100 µM throughout. The TGI with HT29 colon, in the test with A549 NSCLC, in the test with OVCAR-8 ovarian, in the test on SK-MEL-5 melanoma, in the test with KM12 colon and in the test on LOX IMVI melanoma was greater than 100 µM throughout.
As for `C(=Nc1ccc(-c2nc3ccccc3[nH]2)cc1)c1cccs1`, the TGI in the test on COLO 205 colon, in the test on HS 578T breast, in the test with PC-3 prostate, in the test on SK-OV-3 ovarian, with DU-145 prostate and in the test with MOLT-4 leukemia was greater than 100 µM in each case. Moreover, the TGI with HT29 colon, in the test with A549 NSCLC, in the test with OVCAR-8 ovarian, in the test with SK-MEL-5 melanoma, with KM12 colon and with LOX IMVI melanoma was greater than 100 µM throughout.
`O=C1C(CN2CCCCC2)CCC1CN1CCCCC1` (stereo not given): the TGI with COLO 205 colon was 40.7 µM; in the test on HS 578T breast, greater than 73.2 µM; with PC-3 prostate, greater than 57.6 µM; with SK-OV-3 ovarian it was greater than 100 µM; in the test with DU-145 prostate it was greater than 100 µM; in the test with MOLT-4 leukemia it was 3.79 µM. For the same compound, the TGI in the test with HT29 colon was 40.4 µM; in the test with A549 NSCLC it was greater than 100 µM; in the test on OVCAR-8 ovarian it was greater than 68.9 µM; in the test on SK-MEL-5 melanoma it was greater than 69.3 µM; in the test with KM12 colon, greater than 69.7 µM; in the test on LOX IMVI melanoma it was 31.7 µM.
With `COc1cc(CNCc2cc(OC)c(OC)c(OC)c2)cc(OC)c1OC`, the TGI with COLO 205 colon, in the test on HS 578T breast, with PC-3 prostate, in the test on SK-OV-3 ovarian, with DU-145 prostate and in the test on MOLT-4 leukemia was greater than 10 µM in each case. The TGI in the test on HT29 colon, with A549 NSCLC, in the test on OVCAR-8 ovarian, in the test with SK-MEL-5 melanoma, in the test with KM12 colon and with LOX IMVI melanoma was greater than 10 µM each time.
`CC1=NNC(N)=N/C1=C\C(Sc1ccc(Cl)cc1)c1ccc([N+](=O)[O-])cc1` (stereo not given): the TGI in the test with COLO 205 colon, in the test with HS 578T breast, in the test on PC-3 prostate, in the test with SK-OV-3 ovarian, with DU-145 prostate and in the test with MOLT-4 leukemia was greater than 100 µM throughout. Also, the TGI with HT29 colon, in the test with A549 NSCLC, in the test on OVCAR-8 ovarian, in the test with SK-MEL-5 melanoma, in the test with KM12 colon and in the test on LOX IMVI melanoma was greater than 100 µM throughout.
In the case of `COc1cccc(-c2ccc3c4c2O[C@H]2C(=O)CC[C@@]5(O)[C@@H](C3)N(CC3CC3)CC[C@]425)c1`, the TGI with COLO 205 colon amounted to 26.7 µM; in the test with HS 578T breast, 29.1 µM; with PC-3 prostate it was 29.2 µM; with SK-OV-3 ovarian, 34.5 µM; in the test with DU-145 prostate, 63.4 µM; in the test with MOLT-4 leukemia, 24.7 µM. Moreover, the TGI was found to be 24.6 µM in the test on HT29 colon; 35.5 µM with A549 NSCLC; 34.3 µM with OVCAR-8 ovarian; 28 µM in the test with SK-MEL-5 melanoma; 31.7 µM with KM12 colon; 30.9 µM in the test on LOX IMVI melanoma.
Regarding `COC1=C(OC)C(=O)C(Cc2c(C)nc3sc(C)cn23)=C(C)C1=O`, the TGI in the test with COLO 205 colon came out at 36 µM; in the test with HS 578T breast, 67.1 µM; in the test with PC-3 prostate, 68.3 µM; in the test with SK-OV-3 ovarian, 38.9 µM; in the test on DU-145 prostate it was 48 µM; in the test with MOLT-4 leukemia it was 4.23 µM. The TGI in the test with HT29 colon was found to be 40.6 µM; in the test with A549 NSCLC, 49.5 µM; in the test on OVCAR-8 ovarian it was 32.8 µM; in the test on SK-MEL-5 melanoma, 28.6 µM; in the test with KM12 colon it was 55.5 µM; in the test on LOX IMVI melanoma, 39.4 µM.
On to `CCN(CC)C(=O)Cn1c(C)cc2ccccc21`, for which the TGI with COLO 205 colon, in the test with HS 578T breast, in the test on PC-3 prostate, in the test on SK-OV-3 ovarian, with DU-145 prostate and in the test on MOLT-4 leukemia was greater than 100 µM each time. In addition, the TGI with HT29 colon, in the test with A549 NSCLC, in the test with OVCAR-8 ovarian, in the test with SK-MEL-5 melanoma, in the test with KM12 colon and with LOX IMVI melanoma was greater than 100 µM in each case.
